# Data from patent publication US10770169B2, “Method of providing a treatment to a subject based on a dynamic pathway map” (THE REGENTS OF THE UNIVERSITY OF CALIFORNIA, priority 2010, dated 2020).
# Read-outs that look alike come from different tables or passages of the source.
# Key:
# [1] = test system: luminal, basal, claudin-low and ERBB2AMP breast cancer cell lines; test: Associations of clinically relevant subtypes and response (non-parametric ANOVA or t-test on GI50 ranks); assay type: cell-based, human; details: for Subtype specificity: Table 6, most sensitive subtype, FDR p<0.20
# Source text: A central premise of this study is that associations between responses and molecular subtypes observed in preclinical cell line analyses will be recapitulated in the clinic in instances where the predictive molecular features in the cell lines are mirrored in human tumors. We established response-subtype associations by using non-parametric ANOVAs to compare […] values across transcriptional and genomics subtypes.
# Differences between GI50s of the groups were compared with a non-parametric ANOVA or t-test, as appropriate, on the ranks. We combined the p-values for the three sets of tests and used false discovery rate (FDR) to correct for multiple testing. For the three-sample test, we performed a post-hoc analysis on the compounds with a significant class effect by comparing each group to all others to determine which group was most sensitive. The p-values for the post-hoc test were FDR-corrected together. In all cases, FDR p<0.20 was deemed significant. […] Analyses were performed in R.
# [2] = test system: panel of 55 breast cancer cell lines; test: Cell growth inhibition assay (Cell Titer Glo, 72 h, 9 doses; GI50, TGI, LC50); assay type: cell-based, human; details: Homo sapiens, read-out: GI50 (converted)
compound,measurement,setting,value
CN(C)C/C=C/C(=O)Nc1cc2c(Nc3ccc(F)c(Cl)c3)ncnc2cc1O[C@H]1CCOC1 [BIBW 2992],association of response with ERBB2 amplification,[1],positively associated with ERBB2 amplification
same,Subtype specificity,[1],ERBB2AMP
same,GI50,"[2]; BT-20, BT20 cell line, censored GI50 values",2750 nM
same,GI50,"[2]; BT-20, cell line BT20",2750 nM
same,GI50,"[2]; BT-474, BT474 cell line, censored GI50 values",5.89 nM
same,GI50,"[2]; BT-474, cell line BT474",5.89 nM
same,GI50,"[2]; BT-483, BT483 cell line, censored GI50 values",1660 nM
same,GI50,"[2]; BT-483, cell line BT483",1660 nM
same,GI50,"[2]; CAMA-1, CAMA1 cell line, censored GI50 values",2240 nM
same,GI50,"[2]; CAMA-1, cell line CAMA1",2240 nM
same,GI50,"[2]; HCC38, HCC38 cell line, censored GI50 values",1820 nM
same,GI50,"[2]; HCC38, cell line HCC38",1820 nM
same,GI50,"[2]; HCC70, HCC70 cell line, censored GI50 values",468 nM
same,GI50,"[2]; HCC70, cell line HCC70",468 nM
same,GI50,"[2]; HCC1143, HCC1143 cell line, censored GI50 values",1380 nM
same,GI50,"[2]; HCC1143, cell line HCC1143",1380 nM
same,GI50,"[2]; HCC1419, HCC1419 cell line, censored GI50 values",2.95 nM
same,GI50,"[2]; HCC1419, cell line HCC1419",2.95 nM
same,GI50,"[2]; HCC1428, HCC1428 cell line, censored GI50 values",1740 nM
same,GI50,"[2]; HCC1428, cell line HCC1428",1740 nM
same,GI50,"[2]; HCC1500, HCC1500 cell line, censored GI50 values",339 nM
same,GI50,"[2]; HCC1500, cell line HCC1500",339 nM
same,GI50,"[2]; HCC1806, HCC1806 cell line, censored GI50 values",537 nM
same,GI50,"[2]; HCC1806, cell line HCC1806",537 nM
same,GI50,"[2]; HCC1937, HCC1937 cell line, censored GI50 values",2090 nM
same,GI50,"[2]; HCC1937, cell line HCC1937",2090 nM
same,GI50,"[2]; HCC1954, HCC1954 cell line, censored GI50 values",123 nM
same,GI50,"[2]; HCC1954, cell line HCC1954",123 nM
same,GI50,"[2]; HCC2185 cell line, censored GI50 values",1380 nM
same,GI50,"[2]; MDA-MB-134-VI, MDAMB134VI cell line, censored GI50 values",3630 nM
same,GI50,"[2]; MDA-MB-175-VII, MDAMB175VII cell line, censored GI50 values",4.47 nM
same,GI50,"[2]; MDA-MB-436, MDAMB436 cell line, censored GI50 values",3720 nM
same,GI50,"[2]; MDA-MB-436, cell line MDAMB436",3720 nM
same,GI50,"[2]; MDA-MB-453, MDAMB453 cell line, censored GI50 values",91.2 nM
same,GI50,"[2]; MDA-MB-453, cell line MDAMB453",91.2 nM
same,GI50,"[2]; MDA-MB-468, MDAMB468 cell line, censored GI50 values",631 nM
same,GI50,"[2]; MDA-MB-468, cell line MDAMB468",631 nM
same,GI50,"[2]; SK-BR-3, SKBR3 cell line, censored GI50 values",13.2 nM
same,GI50,"[2]; SK-BR-3, cell line SKBR3",13.2 nM
same,GI50,"[2]; SUM52PE, SUM52PE cell line, censored GI50 values",3390 nM
same,GI50,"[2]; SUM52PE, cell line SUM52PE",3390 nM
same,GI50,"[2]; SUM149PT, SUM149PT cell line, censored GI50 values",74.1 nM
same,GI50,"[2]; SUM149PT, cell line SUM149PT",74.1 nM
same,GI50,"[2]; SUM185PE, SUM185PE cell line, censored GI50 values",5620 nM
same,GI50,"[2]; SUM185PE, cell line SUM185PE",5620 nM
same,GI50,"[2]; SUM225CWN, SUM225CWN cell line, censored GI50 values",9.33 nM
same,GI50,"[2]; SUM225CWN, cell line SUM225CWN",9.33 nM
same,GI50,"[2]; SUM1315MO2, SUM1315MO2 cell line, censored GI50 values",162 nM
same,GI50,"[2]; SUM-159-PT, SUM159PT cell line, censored GI50 values",2570 nM
same,GI50,"[2]; SUM-159-PT, cell line SUM159PT",2570 nM
same,GI50,"[2]; UACC-812, UACC812 cell line, censored GI50 values",2.82 nM
same,GI50,"[2]; UACC-812, cell line UACC812",2.82 nM
same,GI50,"[2]; ZR-75-1, ZR751 cell line, censored GI50 values",2340 nM
same,GI50,"[2]; ZR-75-1, cell line ZR751",2340 nM
same,GI50,"[2]; ZR-75B, ZR75B cell line, censored GI50 values",3020 nM
same,GI50,"[2]; ZR-75B, cell line ZR75B",3020 nM
same,GI50,[2]; cell line HCC2185,1380 nM
same,GI50,[2]; cell line MDAMB134V,3630 nM
same,GI50,[2]; cell line MDAMB175V,4.47 nM
same,GI50,[2]; cell line SUM1315MO,162 nM
COc1cc2ncnc(Nc3ccc(F)c(Cl)c3)c2cc1OCCCN1CCOCC1 [Gefitinib],association of response with ERBB2 amplification,[1],positively associated with ERBB2 amplification
same,Subtype specificity,[1],ERBB2AMP
same,GI50,"[2]; AU565, cell line AU565",1070 nM
same,GI50,"[2]; BT-474, cell line BT474",724 nM
same,GI50,"[2]; BT-483, cell line BT483",6170 nM
same,GI50,"[2]; BT-549, cell line BT549",15100 nM
same,GI50,"[2]; CAMA-1, cell line CAMA1",26900 nM
same,GI50,"[2]; HCC38, cell line HCC38",28200 nM
same,GI50,"[2]; HCC70, cell line HCC70",17400 nM
same,GI50,"[2]; HCC1143, cell line HCC1143",11700 nM
same,GI50,"[2]; HCC1187, cell line HCC1187",30200 nM
same,GI50,"[2]; HCC1395, cell line HCC1395",7080 nM
same,GI50,"[2]; HCC1419, cell line HCC1419",2750 nM
same,GI50,"[2]; HCC1428, cell line HCC1428",10700 nM
same,GI50,"[2]; HCC1500, cell line HCC1500",8130 nM
same,GI50,"[2]; HCC1806, cell line HCC1806",4680 nM
same,GI50,"[2]; HCC1937, cell line HCC1937",8320 nM
same,GI50,"[2]; HCC1954, cell line HCC1954",2040 nM
same,GI50,"[2]; MCF7, cell line MCF7",26900 nM
same,GI50,"[2]; MDA-MB-157, cell line MDAMB157",15100 nM
same,GI50,"[2]; MDA-MB-231, cell line MDAMB231",33100 nM
same,GI50,"[2]; MDA-MB-361, cell line MDAMB361",6460 nM
same,GI50,"[2]; MDA-MB-415, cell line MDAMB415",7410 nM
same,GI50,"[2]; MDA-MB-436, cell line MDAMB436",33100 nM
same,GI50,"[2]; MDA-MB-453, cell line MDAMB453",7410 nM
same,GI50,"[2]; MDA-MB-468, cell line MDAMB468",25100 nM
same,GI50,"[2]; SK-BR-3, cell line SKBR3",2820 nM
same,GI50,"[2]; SUM52PE, cell line SUM52PE",7940 nM
same,GI50,"[2]; SUM149PT, cell line SUM149PT",2880 nM
same,GI50,"[2]; SUM185PE, cell line SUM185PE",20900 nM
same,GI50,"[2]; SUM-159-PT, cell line SUM159PT",8510 nM
same,GI50,"[2]; T47D, cell line T47D",15800 nM
same,GI50,"[2]; UACC-893, cell line UACC893",1150 nM
same,GI50,"[2]; ZR-75-1, cell line ZR751",32400 nM
same,GI50,"[2]; ZR-75B, cell line ZR75B",21400 nM
same,GI50,[2]; cell line 600MPE,7240 nM
same,GI50,[2]; cell line HCC2185,9330 nM
same,GI50,[2]; cell line HCC3153,33100 nM
same,GI50,[2]; cell line LY2,27500 nM
same,GI50,[2]; cell line MDAMB134V,30200 nM
same,GI50,[2]; cell line MDAMB175V,209 nM
same,GI50,[2]; cell line SUM1315MO,2950 nM
